# Results reported in the supplement of paper PMC10307832.
# Compound: CN1CCN(CC1)C2=CC(=C(C=C2)NC3=NC(=C(S3)C(=O)C4=C(C=CC=C4Cl)Cl)N)OC [XMD14-99] + CC1(C)CCC(c2ccc(Cl)cc2)=C(CN2CCN(c3ccc(C(=O)NS(=O)(=O)c4ccc(N[C@H](CCN5CCOCC5)CSc5ccccc5)c(S(=O)(=O)C(F)(F)F)c4)cc3)CC2)C1 [Navitoclax] (partner 0.5 µM)
# Experiment: relative viability (nuclei count vs DMSO), 5 days (fraction); higher = more cells survive
# Details: first compound 0.08 µM
# Summary of the method: (§1)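 Lung cancer cell lines were seeded in 1536-well plates and dosed by pin tool the next day, with either a single drug or a fixed anchor-drug dose combined with five library-drug doses (not always all listed) spaced in √10 steps. Five days later, one step fixed the cells and stained their nuclei (final 0.05% Triton X-100, 1% formaldehyde, 1 ug/ml Hoechst), and nuclei were counted on 4× images. Relative viability is the nuclei count in treated wells divided by the count in vehicle wells, and each value is the median of duplicate plates.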
row,Cell Line,relative viability
1,NCI-H838,1.15
2,NCI-H1650,1.15
3,EBC-1,0.37
4,NCI-H1703,1.06
5,NCI-H2009,1.15
6,NCI-H1993,0.978
7,PC-14,0.983
8,NCI-H596,1.03
9,NCI-H2228,1.05
10,EMC-BAC-2,1.08
11,NCI-H2087,0.964
12,Calu-6,0.772
13,HCC-366,1.01
14,NCI-H1666,0.994
15,NCI-H647,1.08
16,LK-2,0.767
17,NCI-H2126,0.844
18,SK-MES-1,1.26
19,H3255,0.542
20,COR-L23,0.951
21,COR-L 105,0.776
22,IA-LM,0.732
23,LOU-NH91,0.662
24,ChaGo-K-1,1.05
25,NCI-H2170,0.574
26,HCC-44,1.07
27,A549,1.14
28,NCI-H727,0.399
29,NCI-H1299,1.08
30,NCI-H1792,0.747

# Same assay, conditions: first compound 0.8 µM
row,Cell Line,relative viability
1,NCI-H838,1.11
2,NCI-H1650,1.44
3,EBC-1,0.384
4,NCI-H1703,1.11
5,NCI-H2009,1.1
6,NCI-H1993,0.922
7,PC-14,0.902
8,NCI-H596,0.956
9,NCI-H2228,0.933
10,EMC-BAC-2,1.14
11,NCI-H2087,0.897
12,Calu-6,0.802
13,HCC-366,1.03
14,NCI-H1666,0.771
15,NCI-H647,1.19
16,LK-2,0.883
17,NCI-H2126,0.797
18,SK-MES-1,1.18
19,H3255,0.654
20,COR-L23,0.894
21,COR-L 105,0.724
22,IA-LM,0.56
23,LOU-NH91,0.758
24,ChaGo-K-1,1.06
25,NCI-H2170,0.594
26,HCC-44,0.888
27,A549,1.13
28,NCI-H727,0.349
29,NCI-H1299,1.03
30,NCI-H1792,0.638

# Same assay, conditions: first compound 2.53 µM
row,Cell Line,relative viability
1,NCI-H838,1.1
2,NCI-H1650,0.992
3,EBC-1,0.415
4,NCI-H1703,0.933
5,NCI-H2009,1.03
6,NCI-H1993,0.796
7,PC-14,0.943
8,NCI-H596,0.702
9,NCI-H2228,0.918
10,EMC-BAC-2,1.06
11,NCI-H2087,0.632
12,Calu-6,0.726
13,HCC-366,0.986
14,NCI-H1666,0.797
15,NCI-H647,1.16
16,LK-2,1.02
17,NCI-H2126,0.879
18,SK-MES-1,1.05
19,H3255,0.493
20,COR-L23,0.746
21,COR-L 105,0.842
22,IA-LM,0.449
23,LOU-NH91,0.685
24,ChaGo-K-1,0.908
25,NCI-H2170,0.644
26,HCC-44,0.935
27,A549,1.03
28,NCI-H727,0.339
29,NCI-H1299,0.994
30,NCI-H1792,0.561

# Same assay, conditions: first compound 8 µM
row,Cell Line,relative viability
1,NCI-H838,0.747
2,NCI-H1650,1.04
3,EBC-1,0.219
4,NCI-H1703,0.719
5,NCI-H2009,0.999
6,NCI-H1993,0.694
7,PC-14,0.726
8,NCI-H596,0.88
9,NCI-H2228,0.364
10,EMC-BAC-2,0.901
11,NCI-H2087,0.463
12,Calu-6,0.473
13,HCC-366,0.863
14,NCI-H1666,0.566
15,NCI-H647,0.974
16,LK-2,0.91
17,NCI-H2126,0.793
18,SK-MES-1,0.821
19,H3255,0.32
20,COR-L23,0.538
21,COR-L 105,0.767
22,IA-LM,0.295
23,LOU-NH91,0.613
24,ChaGo-K-1,0.745
25,NCI-H2170,0.603
26,HCC-44,0.9
27,A549,0.724
28,NCI-H727,0.219
29,NCI-H1299,0.825
30,NCI-H1792,0.41

# Compound: N[C@@H]1CCCN(c2c(/C=C3\SC(=O)NC3=O)cccc2-c2ccccc2)C1 [AZD1208] + CC1(C)CCC(c2ccc(Cl)cc2)=C(CN2CCN(c3ccc(C(=O)NS(=O)(=O)c4ccc(N[C@H](CCN5CCOCC5)CSc5ccccc5)c(S(=O)(=O)C(F)(F)F)c4)cc3)CC2)C1 [Navitoclax] (partner 0.5 µM)
# Experiment: as above
# Details: first compound 0.08 µM
# Summary of the method: as §1
row,Cell Line,relative viability
1,NCI-H838,1.07
2,NCI-H1650,1.07
3,EBC-1,0.317
4,NCI-H1703,0.98
5,NCI-H2009,1.2
6,PC-14,1.02
7,NCI-H596,0.912
8,NCI-H2228,0.782
9,EMC-BAC-2,1.17
10,NCI-H2087,1.05
11,Calu-6,0.737
12,HCC-366,1.1
13,NCI-H1666,0.792
14,NCI-H647,0.934
15,LK-2,0.77
16,NCI-H2126,0.902
17,SK-MES-1,1.08
18,H3255,0.511
19,COR-L23,0.948
20,COR-L 105,0.679
21,IA-LM,0.812
22,LOU-NH91,0.689
23,ChaGo-K-1,1.16
24,NCI-H2170,0.505
25,HCC-44,0.91
26,A549,1.24
27,NCI-H727,0.421
28,NCI-H1299,1.1
29,NCI-H1792,0.678

# Same assay, conditions: first compound 0.253 µM
row,Cell Line,relative viability
1,NCI-H838,1.18
2,NCI-H1650,1.15
3,EBC-1,0.326
